The source of these data is patent US20110098495A1, “Compositions and methods of omega polyunsaturated fatty acids for the treatment of oral diseases” (priority 2009, published 2011).

Type in all cases: cell-based
One experiment has as its system Candida albicans. Description: Candida albicans growth inhibition. As to conditions: final concentration 25 μg/ml. Here is the method: [The procedure below names another organism; the source lists this organism under the same test.] (§1) The inventor verified the test by dissolving 1 mg of omega-3 fatty acids (EPA, DHA, and ALA) and omega-6 fatty acids (ARA, GLA), omega-3 fatty acid methyl esters (EPA-ME, DHA-ME, ALA-ME), and omega-3 fatty acid ethyl esters (EPA-EE, DHA-EE, ALA-EE) in 1000 μl ethanol solution; took 1 (final concentration 1 μg/ml) and 5 μl (final concentration 5 μg/ml) solution by adding 100 μl of Streptococcus mutans in the culture medium cultured overnight at 37° C. After the overnight culture, the medium was diluted 1:10000 times, 5 μl of the diluted culture was applied to blood agar plate and cultured overnight. Calculated the number of colonies on the plates and compared with the control group to obtain the percentage of inhibition.

Experiment [1] deals with Actinobacillus actinomycetemcomitans. Description: Actinobacillus actinomycetemcomitans growth inhibition. As to conditions: Aggregatibacter actinomycetemcomitans; final concentration 15 μg/ml. The procedure:
[The procedure below names another organism; the source lists this organism under the same test.] as §1

The test system of a further experiment is Streptococcus mutans. Description: Streptococcus mutans growth inhibition, colony count on blood agar plate vs control. As to conditions: overnight culture 37° C, colony count vs negative control, read-out: IC50 against Streptococcus mutans. The procedure:
as §1

≈ marks a conversion by molar mass, not a printed value.

Usually inhibition stands for how much of the control response was suppressed. On to `CC/C=C\C/C=C\C/C=C\CCCCCCCC(=O)O` [ALA, α-linolenic acid], for which at 25 µg/mL the inhibition with Candida albicans was 50%. In experiment [1], this compound displayed an inhibition at 15 µg/mL of 50%.
One may read the IC50 as the point on the concentration scale where inhibition reaches its midpoint. In the case of `CCCCC/C=C\C/C=C\C/C=C\C/C=C\CCCC(=O)O` [ARA, arachidonic acid], the IC50 with Streptococcus mutans was around 5 µg/mL (≈ 16.4 µM). The compound also had an inhibition at 25 µg/mL in the experiment on Candida albicans of 50%. Further, testing at 15 µg/mL in experiment [1] gave an inhibition of 50%.
As to `CC/C=C\C/C=C\C/C=C\C/C=C\C/C=C\C/C=C\CCC(=O)O` [DHA, docosahexaenoic acid], testing at 25 µg/mL with Candida albicans gave an inhibition of 50%. Also, the inhibition at 15 µg/mL in experiment [1] worked out at 50%.
`CC/C=C\C/C=C\C/C=C\C/C=C\C/C=C\CCCC(=O)O` [EPA, eicosapentaenoic acid] came in with an inhibition at 25 µg/mL in the experiment on Candida albicans of 50%. The compound also showed an inhibition at 15 µg/mL in experiment [1] of 50%.
For `CCCCC/C=C\C/C=C\C/C=C\CCCCC(=O)O` [GLA, γ-linolenic acid], the IC50 with Streptococcus mutans is around 5 µg/mL (≈ 18 µM).
